From ChEMBL document CHEMBL5096196, “Utilizing structure based drug design and metabolic soft spot identification to optimize the in vitro potency and in vivo pharmacokinetic properties leading to the discovery of novel reversible Bruton's tyrosine kinase inhibitors” (Bioorg Med Chem, 2021)

What was measured:
[1] = Metabolic stability in rat liver microsomes; type: ADME, Microsome
[2] = Metabolic stability in human liver microsomes; type: ADME, Microsome
[3] = physchem; details: octanol/water
[4] = Apparent permeability of compound across Caco-2/TC-7 monolayers in human Caco-2 cells by LC/MSMS analysis; type: ADME, cell-based
[5] = in vitro; details: human, liver microsomes
[6] = in vitro; details: rat, liver microsomes

remaining at 0.5 h [5] [%] | remaining at 0.5 h [6] [%] | SMILES | further results
 |  | N[C@@H](C(=O)N[C@@H]1CCCN(c2ncnc3[nH]ncc23)C1)C1CC1 | Stability [1]: 7%; Stability [2]: < 5%
 |  | O=C1[C@H](Nc2cc(F)cc(Cl)c2)CCCN1[C@@H]1CCCN(c2ncnc3[nH]ncc23)C1 | logD [3]: 4
 |  | O=C1[C@H](Nc2cc(F)cc(Cl)c2)CCCN1[C@@H]1CCCN(c2ncnc3[nH]ccc23)C1 | Papp [4]: 28 ×10⁻⁶ cm/s
31 | < 5 | O=C(N[C@@H]1CCCN(c2ncnc3[nH]ncc23)C1)C(O)Nc1cc(Cl)cc(Cl)c1 (some centres not stated) | 
13 | 85 | O=C(O)/C=N/[C@@H]1CCCN(c2ncnc3[nH]ncc23)C1 | 
 |  | O=C(N[C@@H]1CCCN(c2ncnc3[nH]ncc23)C1)[C@H](O)C1CC1 | Stability [1]: 6%; Stability [2]: < 5%
19 | 11 | O=C(CO)N[C@@H]1CCCN(c2ncnc3[nH]ncc23)C1 | 
